Read-outs that look alike come from different tables or passages of the source.
Test system: human multiple myeloma cell line, OPM-2
Assay: Cell viability assay (OPM-2 10 FBS), CellTiter-Glo
Format: cell-based
Protocol: Cell viability assay (OPM-2 10 FBS)
The human multiple myeloma cell line, OPM-2, was cultured in complete growth medium containing RPMI 1640 and 10% fetal bovine serum (FBS). Cells were seeded into 384-well plates at 3000 cells/well density in complete growth medium containing 10% FBS, and incubated for 16 h with serially diluted test compounds in a 37° C. incubator with 5% CO2. Cell viability was tested using CellTiter-Glo® assay (Promega, Madison, Wis.) according to the manufacturer recommendations. Luminescence was determined using an EnVision® Multilabel plate reader 25 min after the addition of detection reagent. IC50 values were then calculated with Xlfit using a logistical 4-parameter fit model in GraphPad Prism (GraphPad Software, San Diego, Calif.) or in Genedata Screener® (Genedata, Basel, Switzerland).

[1] = read-out: OPM-2 10% FBS IC50 IP, OPM-2 cells, 10% FBS, 16 h incubation
[2] = Homo sapiens, OPM-2, 16 h, read-out: OPM-2 10% FBS IC50 IP, OPM-2 cells, 10% FBS, 16 h incubation

Structure (SMILES) | IC50 [1] [nM] | IC50 [2] [nM]
C[C@@H]1[C@@H](C)C/C=C/[C@@](O)(CN2CCN3CCOC[C@@H]3C2)[C@@H]2CC[C@H]2CN2C[C@@]3(CCCc4cc(Cl)ccc43)COc3ccc(cc32)C(=O)NS1(=O)=O [Example 193, (1S,3′R,6′R,7′S,8′E,11′S,12′R)-6-chloro-7′-((9aS)-hexahydropyrazino[2,1-c][1,4]oxazin-8(1H)-ylmethyl)-7′-hydroxy-11′,12′-dimethyl-3,4-dihydro-2H, 15′H-spiro[naphthalene-1,22′-[20]oxa[13]thia[1,14]diazatetracyclo[14.7.2.0-3,6˜.0˜19,24˜]pentacosa[8,16,18,24]tetraen]-15′-one 13′,13′-dioxide] | 23 | 
CO[C@@]1(CN2CCN3CCCC[C@@H]3C2)/C=C/C[C@H](C)[C@@H](C)S(=O)(=O)NC(=O)c2ccc3c(c2)N(C[C@@H]2CC[C@H]21)C[C@@]1(CCCc2cc(Cl)ccc21)CO3 [Example 197, (1S,3′R,6′R,7′S,8′E,11′S,12′R)-6-chloro-7′-methoxy-11′,12′-dimethyl-7′-((9aR)-octahydro-2H-pyrido[1,2-a]pyrazin-2-ylmethyl)-3,4-dihydro-2H,15′H-spiro[naphthalene-1,22′-[20]oxa[13]thia[1,14]diazatetracyclo [14.7.2.0~3,6~.0~19,24~]pentacosa[8,16,18,24]tetraen]-15′-one 13′,13′-dioxide] |  | 129
C[C@@H]1[C@@H](C)C/C=C/[C@](O)(CN2CCN3CCOC[C@@H]3C2)[C@@H]2CC[C@H]2CN2C[C@@]3(CCCc4cc(Cl)ccc43)COc3ccc(cc32)C(=O)NS1(=O)=O [Example 213, (1 S,3′R,6′R,7′R,8′E,11′S,12′R)-6-chloro-7′-((9aS)-hexahydropyrazino[2,1-c][1,4]oxazin-8(1H)-ylmethyl)-7′-hydroxy-11′,12′-dimethyl-3,4-dihydro-2H, 15′H-spiro[naphthalene-1,22′-[20]oxa[13]thia[1,14]diazatetracyclo[14.7.2.0-3,6˜.0˜19,24˜]pentacosa[8,16,18,24]tetraen]-15′-one 13′,13′-dioxide] | 400 | 
CO[C@@]1(CN2CCN3CCN(C(C)=O)C[C@@H]3C2)/C=C/C[C@H](C)[C@@H](C)S(=O)(=O)NC(=O)c2ccc3c(c2)N(C[C@@H]2CC[C@H]21)C[C@@]1(CCCc2cc(Cl)ccc21)CO3 [Example 214] | 84 | 
CO[C@]1(CN2CCN3CCS(=O)(=O)C[C@@H]3C2)/C=C/C[C@H](C)[C@@H](C)S(=O)(=O)NC(=O)c2ccc3c(c2)N(C[C@@H]2CC[C@H]21)C[C@@]1(CCCc2cc(Cl)ccc21)CO3 [Example 215] | 107 | 
CO[C@]1(CN2CCN3CCN(C(C)=O)C[C@@H]3C2)/C=C/C[C@H](C)[C@@H](C)S(=O)(=O)NC(=O)c2ccc3c(c2)N(C[C@@H]2CC[C@H]21)C[C@@]1(CCCc2cc(Cl)ccc21)CO3 [Example 218] | 92 | 
CO[C@]1(CN2CCN3CCS(=O)(=O)C[C@@H]3C2)/C=C/C[C@H](C)[C@@H](C)S(=O)(=O)NC(=O)c2ccc3c(c2)N(C[C@@H]2CC[C@H]21)C[C@@]1(CCCc2cc(Cl)ccc21)CO3 [Example 219] | 47 | 
CO[C@@]1(CN2CCN3CCN(S(C)(=O)=O)C[C@@H]3C2)/C=C/C[C@H](C)[C@@H](C)S(=O)(=O)NC(=O)c2ccc3c(c2)N(C[C@@H]2CC[C@H]21)C[C@@]1(CCCc2cc(Cl)ccc21)CO3 [Example 228] |  | 93.1
CO[C@@]1(CN2CCN(C3CCOCC3)CC2)/C=C/C[C@H](C)[C@@H](C)S(=O)(=O)NC(=O)c2ccc3c(c2)N(C[C@@H]2CC[C@H]21)C[C@@]1(CCCc2cc(Cl)ccc21)CO3 [Example 262, (1S,3′R,6′R,7′S,8′E,11′S,12′R)-6-chloro-7′-methoxy-11′,12′-dimethyl-7′-((4-(tetrahydro-2H-pyran-4-yl)-1-piperazinyl)methyl)-3,4-dihydro-2H,15′H-spiro[naphthalene-1,22′-[20]oxa[13]thia[1,14]diazatetracyclo [14.7.2.0~3,6~.0~19,24~]pentacosa[8,16,18,24]tetraen]-15′-one 13′,13′-dioxide] |  | 89
CO[C@@]1(CN2CCC(N3CCOCC3)CC2)/C=C/C[C@H](C)[C@@H](C)S(=O)(=O)NC(=O)c2ccc3c(c2)N(C[C@@H]2CC[C@H]21)C[C@@]1(CCCc2cc(Cl)ccc21)CO3 [Example 263, (1S,3′R,6′R,7′S,8′E,11′S,12′R)-6-chloro-7′-methoxy-11′,12′-dimethyl-7′-((4-(4-morpholinyl)-1-piperidinyl)methyl)-3,4-dihydro-2H,15′H-spiro[naphthalene-1,22′-[20]oxa[13]thia[1,14]diazaetracyclo [14.7.2.0~3,6~.0~19,24~]pentacosa[8,16,18,24]tetraen]-15′-one 13′,13′-dioxide] |  | 124
CO[C@@]1(CN2CCN(CC(=O)O)CC2)/C=C/C[C@H](C)[C@@H](C)S(=O)(=O)NC(=O)c2ccc3c(c2)N(C[C@@H]2CC[C@H]21)C[C@@]1(CCCc2cc(Cl)ccc21)CO3 [Example 270, (4-(((1S,3′R,6′R,7′S,8′E,11′S,12′R)-6-CHLORO-7′-METHOXY-11′,12′-DIMETHYL-13′,13′-DIOXIDO-15′-OXO-3,4-DIHYDRO-2H-SPIRO[NAPHTHALENE-1,22′-[20]OXA[13]THIA[1,14]DIAZATETRACYCLO[14.7.2.0-3,6˜.0˜19,24˜]PENT ACOSA[8,16,18,24]TETRAEN]-7′-YL)METHYL)-1-PIPERAZINYL)ACETIC ACID] |  | 4860
COCC(COC)N1CCN(C[C@]2(OC)/C=C/C[C@H](C)[C@@H](C)S(=O)(=O)NC(=O)c3ccc4c(c3)N(C[C@@H]3CC[C@H]32)C[C@@]2(CCCc3cc(Cl)ccc32)CO4)CC1 [Example 287, (1S,3′R,6′R,7′S,8′E,11′S,12′R)-6-chloro-7′-methoxy-7′-((4-(2-methoxy-1-(methoxymethyl)ethyl)-1-piperazinyl)methyl)-11′,12′-dimethyl-3,4-dihydro-2H,15′H-spiro[naphthalene-1,22′-[20]oxa[13]thia[1,14]diazatetracyclo [14.7.2.0~3,6~.0~19,24~]pentacosa[8,16,18,24]tetraen]-15′-one 13′,13′-dioxide] |  | 50
COCCN(CCOC)C1CCN(C[C@]2(OC)/C=C/C[C@H](C)[C@@H](C)S(=O)(=O)NC(=O)c3ccc4c(c3)N(C[C@@H]3CC[C@H]32)C[C@@]2(CCCc3cc(Cl)ccc32)CO4)CC1 [Example 308, (1S,3′R,6′R,7′S,8′E,11′S,12′R)-7′-((4-(bis(2-methoxyethyl)amino)-1-piperidinyl)methyl)-6-chloro-7′-methoxy-11′,12′-dimethyl-3,4-dihydro-2H,15′H-spiro[naphthalene-1,22′-[20]oxa[13]thia[1,14]diazatetracyclo [14.7.2.0~3,6~.0~19,24~]pentacosa[8,16,18,24]tetraen]-15′-one 13′,13′-dioxide] |  | 70
CO[C@@]1(CN2CCN(CC(CO)CO)CC2)/C=C/C[C@H](C)[C@@H](C)S(=O)(=O)NC(=O)c2ccc3c(c2)N(C[C@@H]2CC[C@H]21)C[C@@]1(CCCc2cc(Cl)ccc21)CO3 [Example 310, (1S,3′R,6′R,7′S,8′E,11′S,12′R)-6-chloro-7′-((4-(3-hydroxy-2-(hydroxymethyl)propyl)-1-piperazinyl)methyl)-7′-methoxy-11′,12′-dimethyl-3,4-dihydro-2H,15′H-spiro[naphthalene-1,22′-[20]oxa[13]thia[1,14]diazatetracyclo [14.7.2.0~3,6~.0~19,24~]pentacosa[8,16,18,24]tetraen]-15′-one 13′,13′-dioxide] |  | 517
CCO[C@@]1(CN2CCN(C3(C)COC3)CC2)/C=C/C[C@H](C)[C@@H](C)S(=O)(=O)NC(=O)c2ccc3c(c2)N(C[C@@H]2CC[C@H]21)C[C@@]1(CCCc2cc(Cl)ccc21)CO3 [Example 311, (1S,3′R,6′R,7′S,8′E,11′S,12′R)-6-chloro-7′-ethoxy-11′,12′-dimethyl-7′-((4-(3-methyl-3-oxetanyl)-1-piperazinyl)methyl)-3,4-dihydro-2H,15′H-spiro[naphthalene-1,22′-[20]oxa[13]thia[1,14]diazatetracyclo [14.7.2.0~3,6~.0~19,24~]pentacosa[8,16,18,24]tetraen]-15′-one 13′,13′-dioxide] |  | 362
CCO[C@@]1(CN2CCC(N(CCOC)CCOC)CC2)/C=C/C[C@H](C)[C@@H](C)S(=O)(=O)NC(=O)c2ccc3c(c2)N(C[C@@H]2CC[C@H]21)C[C@@]1(CCCc2cc(Cl)ccc21)CO3 [Example 312, (1S,3′R,6′R,7′S,8′E,11′S,12′R)-7′-((4-(bis(2-methoxyethyl)amino)-1-piperidinyl)methyl)-6-chloro-7′-ethoxy-11′,12′-dimethyl-3,4-dihydro-2H,15′H-spiro[naphthalene-1,22′-[20]oxa[13]thia[1,14]diazatetracyclo [14.7.2.0~3,6~.0~19,24~]pentacosa[8,16,18,24]tetraen]-15′-one 13′,13′-dioxide] |  | 408
CO[C@]1(CN2CCN(C3(C)COC3)CC2)/C=C/C[C@H](C)[C@@H](C)S(=O)(=O)NC(=O)c2ccc3c(c2)N(C[C@@H]2CC[C@H]21)C[C@@]1(CCCc2cc(Cl)ccc21)CO3 [Example 319, (1S,3′R,6′R,7′R,8′E,11′S,12′R)-6-chloro-7′-methoxy-11′,12′-dimethyl-7′-((4-(3-methyl-3-oxetanyl)-1-piperazinyl)methyl)-3,4-dihydro-2H,15′H-spiro[naphthalene-1,22′-[20]oxa[13]thia[1,14]diazatetracyclo [14.7.2.0~3,6~.0~19,24~]pentacosa[8,16,18,24]tetraen]-15′-one 13′,13′-dioxide] |  | 87
